Source: patent US20230181524A1, “PHARMACEUTICAL COMBINATION AND USE THEREOF” (NATURAL MEDICINE INSTITUTE OF ZHEJIANG YANGSHENGTANG CO., …, priority 2020, published 2023)
Where two headings read alike, the source gives them in different places.

How the values were obtained:
[1] = test system: MC38 human colon cancer cells; assay: Cell viability, method of Example 1; conditions: MC38 cells
Description: (§1) (1) Cells were plated in a 10 cm culture plate to grow a density of about 90%. The medium was removed, and the adherent cells were washed once with a PBS buffer. 1 mL of trypsin was added, and immediately discarded after mixing well. The cells were placed in the incubator and digested for about 5 min, and then about 10 ml of fresh medium was added. 10 μL was taken for counting.
(§2) (2) 10 μL of the well-mixed cells were taken and mixed into 10 μL of Trypan Blue solution, and counted.
(§3) (3) After counting, the cells were diluted to 1×10^5 cells/ml. The diluted cells were mixed well, and plated into a 24-well plate with 500 μL per well, i.e., about 50,000 cells per well.
(§4) (4) The cells plated in the 24-well plate were cultured for about 24h, and then drugs were added. Various test groups comprise 5 groups as follows: the single-drug group of PKF118-310 (with a concentration of 0.1 μM), the group of ascorbic acid (with a concentration of 0.5 mM), the group of PKF118-310 (with a concentration of 0.1 μM) in combination with ascorbic acid (with a concentration of 0.5 mM); the control group that is a cell group to which only solvent DMSO is added; and the blank group that is a group to which no cell is added and only solvent (DMSO) is added.
(§5) (5) After 24h of dosing, the medium was discarded. About 150 μL of trypsin was added and then discarded. The cells were digested for 5 min;
(§6) (6) After digestion, equivalent amounts of PBS were added into each well and mixed uniformly. Then, 10 μL/well of Trypan Blue solution was added and mixed uniformly. 10 μL of the well-mixed solution was taken and counted. In accordance with “Cell viability=Cell Count of Test Group/Cell Count of Control Group×100%”, the cell viability of various groups was calculated.
The inhibitory effect of PKF118-310 on the MC38 human colon cancer cells and the HCT116 human […] cancer cells was detected in accordance with the corresponding method of Example 1.

macrophages = assay: Cell viability of immune cells by cell count; format: cell-based; conditions: 0.1 μM PKF118-310 in combination with 0.5 mM ascorbic acid, 24h
Description: (§7) Immune cells comprise T cells and Macrophages, wherein the T cells are cultured with a 1640 medium, and the macrophages are cultured with a DMEM medium. The particular procedures are follows:
(§8) 10 μL was taken for counting.
(§9) (5) After 24h of dosing, the medium was discarded. […] The cells were digested for 5 min;

T cells = assay: Cell viability of immune cells by cell count; format: cell-based; conditions: 0.1 μM PKF118-310 in combination with 0.5 mM ascorbic acid, 24h
Description: as §7, §8, §9

DB lymphoma cells = test system: DB lymphoma cells
Description: as §1, §2, §3, §4, §5, §6
For example, as for the DB lymphoma cells, the control group involves adding the solvent DMSO alone, the Vc group involves adding 2 mM of ascorbic acid, the low-dose PKF group involves adding 2 μM of PKF118-310, the low-dose PKF+Vc group involves adding 2 μM of PKF118-310 and 2 mM of ascorbic acid, the high-dose PKF group involves adding 5 μM of PKF118-310, and the high-dose PKF+the Vc group involves adding 5 μM of PKF118-310 and 2 mM of ascorbic acid.

[2] = 0.3 μM in combination with 0.5 mM sodium ascorbate

Compound: Cn1ncnc2c(=O)n(C)c(=O)nc1-2 [PKF118-310]
- CDI value [1, 2]: 0.15
- cell viability [1, 2]: 11%
- cell viability ([1]; single-drug 0.3 μM): 88%
- effect on immune cells (cell viability) (macrophages): does not have effect on the immune cells
- effect on immune cells (cell viability) (T cells): does not have effect on the immune cells
- cell viability (DB lymphoma cells; 2 μM and 2 mM ascorbic acid): 12%
- cell viability (DB lymphoma cells; 5 μM and 2 mM ascorbic acid): 11%
- CDI value (DB lymphoma cells; high-dose (5 μM) with 2 mM ascorbic acid): 0.18
- CDI value (DB lymphoma cells; low-dose (2 μM) with 2 mM ascorbic acid): 0.17
- cell viability (DB lymphoma cells; single drug 2 μM (low-dose)): 72%
- cell viability (DB lymphoma cells; single drug 5 μM (high-dose)): 67%
